Test results published in PubChem BioAssay AID1645864 (Buhrlage Lab, Dana-Farber Cancer Institute and Novartis …, 2021).
The source made the active and inactive calls.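 How the source made its calls: active means maximal inhibition of USP17 at or above 30% in the confirmation dose-response, a value not among the printed readouts; inactive means the rest.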

Biological target: Ubiquitin carboxyl-terminal hydrolase 17-like protein 5 (Homo sapiens) (UniProt A8MUK1)
Experiment: ubiquitin-specific protease 17 inhibitors, concentration series, biochemical, verification of primary actives (AID 1645864)
Settings: purified USP17, ubiquitin-rhodamine cleavage fluorescence, 3 h

Chain of Ubiquitin carboxyl-terminal hydrolase 17-like protein 5 (Homo sapiens) (A8MUK1 whole entry, looked up): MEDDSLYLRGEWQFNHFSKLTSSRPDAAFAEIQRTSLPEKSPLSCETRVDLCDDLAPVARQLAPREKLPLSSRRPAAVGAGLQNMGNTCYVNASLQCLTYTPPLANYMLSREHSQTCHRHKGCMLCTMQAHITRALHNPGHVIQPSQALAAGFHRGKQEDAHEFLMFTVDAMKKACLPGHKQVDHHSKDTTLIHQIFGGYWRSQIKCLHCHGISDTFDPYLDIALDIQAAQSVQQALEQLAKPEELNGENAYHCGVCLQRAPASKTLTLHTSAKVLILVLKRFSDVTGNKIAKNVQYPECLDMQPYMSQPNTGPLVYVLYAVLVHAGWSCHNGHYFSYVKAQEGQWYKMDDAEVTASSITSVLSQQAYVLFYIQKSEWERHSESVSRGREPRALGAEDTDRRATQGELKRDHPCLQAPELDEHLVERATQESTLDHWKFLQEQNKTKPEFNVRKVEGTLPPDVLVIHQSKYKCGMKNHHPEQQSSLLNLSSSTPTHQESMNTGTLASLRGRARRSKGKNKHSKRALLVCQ

Structure (SMILES)	IC50
O=C1COc2ccc(NC(=O)c3cnn(Cc4ccccc4)c3)cc2N1	39.4 µM
CCC(=O)Nc1cccnc1-c1ccc(C(=O)Nc2cccc(OC)c2)cc1	> 50 µM (inactive)
CCc1ccc(C2c3c(oc4ccccc4c3=O)C(=O)N2c2nncs2)cc1 (stereo unspecified)	> 50 µM (inactive)
Cc1cc(C)c2cc3c(nc2c1)OC(=O)N(Cc1ccco1)C3	30.9 µM
Cc1ccc(-n2nnc(C(=O)NC3CCCCC3)c2N)cc1	22.1 µM
Cn1cc(-c2cnc(-c3cccc(F)c3)nc2)cc1C(=O)NCc1cccnc1	37.8 µM
COC(=O)c1ccccc1NC(=O)CSc1nnc(CNc2ccc(F)cc2)n1CC1CCCO1 (stereo unspecified)	> 50 µM (inactive)
COc1ccc(/C=C/C(=O)Nc2cccc(S(=O)(=O)Nc3ccccc3Cl)c2)c(OC)c1	9.3 µM
O=C(Nc1ccc(F)c(Cl)c1)c1ccc(N2CCCCS2(=O)=O)cc1Cl	> 50 µM (inactive)
Cc1ccc(/C=C/C(=O)Nc2ccc3c(c2)OCCO3)cc1	> 50 µM (inactive)
O=C(Nc1ccccc1)c1cn2c3c(cccc3c1=O)CC2	26.9 µM
COc1ccccc1CNC(=O)Nc1cccc2ccccc12	39.2 µM
COc1ccccc1-c1ccc(CN2[C@@H](c3ccccc3)C[C@@H]3NC(=O)CCC[C@H]32)cc1	> 50 µM (inactive)
CN1CC2CN(C(=O)Nc3cccnc3)CCN2Cc2ccccc21 (stereo unspecified)	> 50 µM (inactive)
O=C(CCCCn1c(=O)[nH]c2ccccc2c1=O)Nc1cccc(Cl)c1	19.4 µM
O=C(NC1CCCCC1)c1cc2c(cn1)[nH]c1ccccc12	> 50 µM (inactive)
Cc1cccc(N2C(=O)/C(=C\c3ccc4c(c3)OCCO4)c3ccccc3C2=O)c1	23.6 µM
O=C(CCCCn1c(=O)c2ccccc2n(Cc2ccccc2F)c1=O)NCCc1ccccc1	16.8 µM
CC[C@H](C)C[C@H]1CC[C@](O)([C@](C)(O)C(=O)N[C@@H]2C(=O)N3NCCC[C@@H]3C(=O)N(O)[C@@H](C)C(=O)NCC(=O)N3NCCC[C@H]3C(=O)N(O)[C@H](C)C(=O)O[C@H]2C(C)C)O[C@@H]1C	13.6 µM
COc1ccc(NC(=O)c2nc3n(n2)-c2ccccc2S(=O)(=O)N3)cn1	> 50 µM (inactive)
O=C1N(Cc2ccc(F)cc2)CCN1c1ccc(C(F)(F)F)cn1	> 50 µM (inactive)
COCCCNC(=O)c1ccc(Cn2c(=O)c3ccccc3n(CC(=O)Nc3ccc(OC)cc3)c2=O)cc1	29.7 µM
Fc1ccc(Cn2ccc(-c3cnc(-c4ccccc4)s3)n2)cc1	> 50 µM (inactive)
Cc1ccc(NC(=O)CCC(=O)Nc2ccc3nc(N4CCCCC4)cc(C)c3c2)c(Br)c1	49.7 µM

Structure (SMILES)	IC50
Cc1nc2nc(SCc3nc4ccccc4n3C)[nH]c2cc1Br	3.51 µM
O=C(Cc1nnc2c(-c3nc(C4CC4)no3)cccn12)Nc1ccccc1	20.1 µM
Cc1cc(CSc2ncccc2C(=O)Nc2ccnn2Cc2cccnc2)no1	> 50 µM (inactive)
COc1ccc(-c2nnc(SCc3ccccc3C#N)o2)c(OC)c1	> 50 µM (inactive)
COc1ccc(NC(=O)C2Oc3ccc(C)cc3NC2=O)cc1Cl (stereo unspecified)	14.5 µM
Fc1cccc(-n2cc(-c3noc(-c4ccccn4)n3)nn2)c1	30.1 µM
Nc1nonc1C(=O)NCCNCc1cccc(OCc2ccc(Cl)cc2)c1	> 50 µM (inactive)
c1csc(CCN2CCc3nc4cccnc4cc3C2)c1	> 50 µM (inactive)
CC(C)(C)C(=O)Nc1ccc(C(=O)Nc2cccc(-c3nnc(-c4ccccc4)o3)c2)cc1	5.27 µM
CCOC(=O)c1cc2c(ccn2C)n1CC(=O)N1CCC(C)CC1	> 50 µM (inactive)
O=C(CSc1nnc(-c2ccncc2)n1Cc1ccccc1)c1ccc2[nH]c(O)cc2c1	4.12 µM
O=C(Cc1ccccc1F)Nc1nc(-c2ccco2)c(-c2ccco2)s1	> 50 µM (inactive)
O=C(CCc1c[nH]c2ccccc12)Nc1ccc(N2CCOCC2)cc1	30.5 µM
CC(C)(C)C(=O)[C@@H]1[C@@H](C(=O)c2ccc3c(c2)OCO3)[C@@]2(C(=O)Nc3ccccc32)[C@H]2c3ccccc3C=CN12	31.3 µM
O=C(c1ccc2occc2c1)N1CCC(S(=O)(=O)c2ccc(-c3ccco3)cc2)CC1	> 50 µM (inactive)
CCOc1ccccc1C(=O)Nc1ccc2c(c1)Sc1ncccc1C(=O)N2C	> 50 µM (inactive)
O=C(Cc1cccs1)Nc1cc(F)c2nc(N3CCOCC3)ccc2c1	31.2 µM
Fc1ccc(CN2CCc3nc4cccnc4cc3C2)cc1	> 50 µM (inactive)
COc1ccc(S(=O)(=O)N2CCc3ccccc32)cc1C(=O)Nc1ccc2[nH]c(=O)[nH]c2c1	4.48 µM
CCn1ccc2c(cc(C(=O)Nc3cc(F)ccc3F)n2C)c1=O	> 50 µM (inactive)
O=C(COc1nc2ccccc2nc1N1CCOCC1)NC(c1ccccc1)c1ccccc1	> 50 µM (inactive)
COc1ccc(/C=C/C(=O)N2CCc3ccccc32)cc1S(=O)(=O)N1CCOCC1	> 50 µM (inactive)
CC1=CN2C(=N)/C(=C/c3cn(Cc4ccc(Cl)cc4)c4ccccc34)C(=O)N=C2S1	> 50 µM (inactive)
O=C(Nc1ccc(-c2nnc3n2CCCCC3)cc1)c1ccc2c(c1)OCO2	> 50 µM (inactive)

Structure (SMILES)	IC50
COc1ccc(COc2ccc3c(C)c(CC(=O)N4CC[C@@]5(O)CCCC[C@H]5C4)c(=O)oc3c2)cc1	2.55 µM
O=S(=O)(c1ccc2c(c1)OCCO2)N(Cc1ccccc1)Cc1nnc(-c2ccccc2)o1	> 50 µM (inactive)
COc1cccc(-c2cc(=O)[nH]c(Nc3nc(C)c4ccccc4n3)n2)c1	43.1 µM
COc1ccc(OC)c(CCNC(=O)CCC2=NS(=O)(=O)c3ccc(C(F)(F)F)cc3N2)c1	26.9 µM
O=C(O)c1ccccc1C(=O)Nc1ccc(SC(C(=O)Nc2ccccc2)c2ccccc2)cc1 (stereo unspecified)	> 50 µM (inactive)
COc1ccccc1OCC(=O)Nc1ccc2c(c1)CCC(=O)N2Cc1ccccc1	> 50 µM (inactive)
CCS(=O)(=O)c1ccccc1C(=O)Nc1ccc2sc(C)nc2c1	> 50 µM (inactive)
CC(C)Oc1ccc(C(=O)Nc2cccc(S(=O)(=O)N3CCCC3)c2)cc1	> 50 µM (inactive)
c1ccc2c(c1)CCc1c-2nc2ccccc2c1N1CCOCC1	> 50 µM (inactive)
Cc1[nH]nc(NC(=O)C2COc3ccccc3O2)c1-c1ccccc1 (stereo unspecified)	34.7 µM
CS(=O)(=O)n1nc(NCc2ccc(F)cc2)nc1NCc1ccc(F)cc1	> 50 µM (inactive)
COc1cccc(-n2c(=O)[nH]c3c(C(N)=O)nc(-c4ccc(OCc5ccccc5)cc4)nc32)c1	> 50 µM (inactive)
Cc1c(-c2ccc(C#N)cc2)oc2ccc(Br)cc2c1=O	2.88 µM
CC1Oc2cc3c(-c4c(O)cc(O)c5c(O)c6c(cc45)OC(C)C(C)C6=O)c(O)cc(O)c3c(O)c2C(=O)C1C (stereo unspecified)	1.25 µM
CCCc1nc2sc3c(N(CC)CC)ncnc3c2c2c1CCC2	> 50 µM (inactive)
CCc1nc(SCC(=O)Nc2ccccc2Cl)c2oc3ccccc3c2n1	0.0527 µM
Cc1cccc(NC(=O)Cn2c(=O)n(Cc3ccc(F)cc3)c(=O)c3sccc32)c1	5.8 µM
COc1ccc(Nc2ncc(C(=O)Nc3ccc(Oc4ccccc4)cc3)c3ccccc23)cc1	> 50 µM (inactive)
O=C1Cc2ccccc2C(=O)N1c1ccc2c(c1)OCO2	22.6 µM
COc1ccccc1C(=O)NCC(c1ccc2c(c1)CCCN2C)N1CCCC1 (stereo unspecified)	> 50 µM (inactive)
CCn1c(CNc2ccc(Cl)cc2)nnc1SCC(=O)Nc1ccccc1	> 50 µM (inactive)
FC(F)(F)c1cccc(N2CCN(c3nc4ccccc4n4nnnc34)CC2)c1	> 50 µM (inactive)
O=C(NCc1ccc2c(c1)OCO2)c1cc(-c2cc(Cl)ccc2O)n[nH]1	3.15 µM
COc1ccc(-c2cnnn2-c2ccc(NC(=O)c3c(F)cccc3F)cc2)cc1OC	> 50 µM (inactive)

Structure (SMILES)	IC50
O=c1c2cnc(N3CCCCC3)nc2ccn1CCc1ccccc1	1.87 µM
COc1ccc(-c2cc3c(=O)n(CC(=O)NCCCN4CCCC4)ncn3n2)cc1	29.2 µM
CCn1c(=O)c(=O)[nH]c2cc(C(=O)Nc3cccc(-c4csc(C)n4)c3)ccc21	26.9 µM
Cc1nn(-c2ccccc2)c2c1N=C1C(Cl)=CC(Cl)=CN1C21C(=O)Nc2ccccc21 (stereo unspecified)	> 50 µM (inactive)
c1ccc(CN2CCN(c3nc4ccccc4n4nnnc34)CC2)cc1	> 50 µM (inactive)
O=C(Nc1cccc(S(=O)(=O)N2CCCC2)c1)c1ccc2c(=O)n3c(nc2c1)CCCCC3	> 50 µM (inactive)
CC1=C[C@@H](C)CC[C@H]2O[C@@H](C3=C(O)C(=O)C(C)=C4O[C@](O)(C=C43)[C@@H](C)C[C@H](C)C1)[C@H](C)[C@@H](O)[C@H]2C	16.1 µM
CSc1nc2ncc3c(=O)n(CCc4ccccc4)ccc3n2n1	> 50 µM (inactive)
CC1=C(c2ccc(F)cc2)S(=O)(=O)NC1=NCC(=O)Nc1ccc(F)cc1	40.6 µM
O=[N+]([O-])c1ccc(NCc2ccc(-c3cccs3)s2)nc1	39.1 µM
O=C(CNC(=O)c1cc2ccccc2[nH]1)Nc1ccc2c(c1)OCCO2	34 µM
Cc1c(OCC(=O)Nc2nc3ccccc3[nH]2)ccc2c3c(c(=O)oc12)CCC3	0.339 µM
COc1ccc2nc(NC(=O)C(CC(C)C)NS(=O)(=O)c3ccc4c(c3)CCN4C(C)=O)sc2c1 (stereo unspecified)	29.2 µM
Cc1cc(C(=O)N2CCN(C3CCN(Cc4ccc(Cl)o4)CC3)C(=O)C2)c(C)o1	> 50 µM (inactive)
COc1cc(OC)cc(C(=O)Nc2cnc(-c3ccccc3)nc2)c1	> 50 µM (inactive)
COc1c2c(cc3cc(O)c4c(=O)cc(C)oc4c13)CCC2=O	34.3 µM
COc1ccc(/C=C/C(=O)Nc2c3c(nc4c2CCC4)CCCC3)cc1	15 µM
O=S1(=O)NC(=NCCc2ccc(Cl)cc2Cl)c2ccccc21	36.4 µM
O=C(c1ccc2ncccc2c1)N1CCC2(C1)Nc1cccnc1NC2=NC1CCCC1 (stereo unspecified)	> 50 µM (inactive)
COc1ccc2c(c1)CCc1c(C(=O)NCc3cccnc3)noc1-2	25.2 µM
CC(=O)c1ccc(N2C(=O)N(Cc3cccc([N+](=O)[O-])c3)c3ccccc3S2(=O)=O)cc1	> 50 µM (inactive)
CCOc1ccc(S(=O)(=O)Nc2ccc[nH]c2=O)cc1	> 50 µM (inactive)
CC1=CC(=O)C(C2=C(O)C(=O)C(C)=CC2=O)=C(O)C1=O	3.55 µM
Cc1nc(-c2ccc(NC(=O)N3CCN(c4ccccn4)CC3)cc2)no1	> 50 µM (inactive)
